Read-outs that look alike come from different tables or passages of the source.
Tests used:
S. aureus [1] = test: In vitro tracer binding to S. aureus; set-up: species or system Staphylococcus aureus; conditions: clinical isolate, culture OD600 about 3.0, 37 °C, sampled at 0, 15 and 30 min, washed twice, gamma counter
Procedure: (§1) Single colonies of clinical S. aureus and E. coli isolates were used to inoculate TSB and incubated overnight. From the overnight cultures, fresh cultures were started and grown to an optical density at 600 nm (OD600) of approximately 3.0. Both strains were incubated with tracer (3.5 MBq in 1 mL 0.9% saline) in a water bath at 37 °C. The final tracer concentration was 120 kBq ± 28 (38.6 pg ± 9.1 and 0.5 pg ± 0.1 of [^18F]BODIPY-FL-vancomycin and [^18F]PQ-VE1-vancomycin, respectively) per mL culture. At fixed time intervals (0, 15 and 30 min), aliquots were collected (2.0 mL in a 2 mL Eppendorf tube) and washed twice with sterile PBS (1.0 mL per washing step). In each washing step, the bacteria were pelleted by centrifugation (10.000 rpm, 60 s) and resuspended in fresh PBS. […] Measurements were corrected for background and decay. Results are reported as counts per s (Bq). To correlate bound tracer with the number of bacteria in a sample, the bacterial suspensions (2 ×) were plated and CFUs were counted.

E. coli [2] = test: In vitro tracer binding to E. coli; set-up: species or system Escherichia coli; conditions: clinical isolate, culture OD600 about 3.0, 37 °C, sampled at 0, 15 and 30 min, washed twice, gamma counter
Procedure: as §1

[3] = tested on: S. epidermidis ATCC 35,984; conditions: ATCC 35, 17 h
Procedure: From a single colony an overnight culture was inoculated in Mueller Hinton Broth (MHB) and incubated overnight. On the day of the experiment, a fresh culture was started in 10 mL of MHB until exponential phase was reached. From this, the culture was diluted to an OD600 of 0.01 for the MIC experiment. […] Growth was recorded using a BioTeK Synergy2 microplate spectrophotometer (Agilent, Santa Clara, United States).

[4] = up to 120 min, previously shown; cited from earlier work
Procedure: Tracer stability was assessed in both PBS and human plasma. […] In contrast, > 90% of the [^18F]BODIPY-FL-vancomycin remained stable in PBS and plasma for up to 120 min, as was also previously shown for [^18F]PQ-VE1-vancomycin [44].

E. coli [5] = conditions: previously reported; cited from earlier work
Procedure: (§2) In vitro binding of [^18F]BODIPY-FL-vancomycin and [^18F]FB-vancomycin to the Gram-positive bacterium S. aureus and the Gram-negative bacterium E. coli was assayed by incubating the bacteria with either one of the two tracers and collecting samples at fixed time intervals to determine the radioactivity associated with the bacteria.

S. aureus [6] = conditions: previously reported; cited from earlier work
Procedure: as §2

| Structure (SMILES) | Binding to S. aureus (S. aureus [1]) | Binding to E. coli (E. coli [2]) | MIC [3] [µg/mL] | Tracer remaining stable in PBS [4] | Tracer remaining stable in human plasma [4] | Binding to E. coli (E. coli [5]) | Binding to S. aureus (S. aureus [6]) |
| --- | --- | --- | --- | --- | --- | --- | --- |
| Cc1cc(C)n2c1C=C1C=CC(CCC(=O)N(C)[C@H](CC(C)C)C(=O)N[C@H]3C(=O)N[C@@H](CC(N)=O)C(=O)N[C@H]4C(=O)N[C@H]5C(=O)N[C@H](C(=O)N[C@H](C(=O)O)c6cc(O)cc(O)c6-c6cc5ccc6O)[C@H](O)c5ccc(c(Cl)c5)Oc5cc4cc(c5O[C@@H]4O[C@H](CO)[C@@H](O)[C@H](O)[C@H]4O[C@H]4C[C@](C)(N)[C@H](O)[C@H](C)O4)Oc4ccc(cc4Cl)[C@H]3O)=[N+]1[B-]2(F)F [[^18F]BODIPY-FL-vancomycin] | rapid and selective binding to S. aureus | not to E. coli | 16 | – | – | – | – |
| CC(C)C[C@H](C(=O)N[C@H]1C(=O)N[C@@H](CC(N)=O)C(=O)N[C@H]2C(=O)N[C@H]3C(=O)N[C@H](C(=O)N[C@H](C(=O)O)c4cc(O)cc(O)c4-c4cc3ccc4O)[C@H](O)c3ccc(c(Cl)c3)Oc3cc2cc(c3O[C@@H]2O[C@H](CO)[C@@H](O)[C@H](O)[C@H]2O[C@H]2C[C@](C)(N)[C@H](O)[C@H](C)O2)Oc2ccc(cc2Cl)[C@H]1O)N(C)C(=O)c1ccc(F)cc1 [[^18F]FB-vancomycin] | no bacterial binding was observed | no bacterial binding was observed | – | – | – | – | – |
| CN[C@H](CC(C)C)C(=O)N[C@H]1C(=O)N[C@@H](CC(N)=O)C(=O)N[C@H]2C(=O)N[C@H]3C(=O)N[C@H](C(=O)N[C@H](C(=O)O)c4cc(O)cc(O)c4-c4cc3ccc4O)[C@H](O)c3ccc(c(Cl)c3)Oc3cc2cc(c3O[C@@H]2O[C@H](CO)[C@@H](O)[C@H](O)[C@H]2O[C@H]2C[C@](C)(NC(=O)c3ccc4c5c(c6ccccc6c4c3)OCC(OCCF)O5)[C@H](O)[C@H](C)O2)Oc2ccc(cc2Cl)[C@H]1O (stereo partly drawn) [[^18F]PQ-VE1-vancomycin] | – | – | – | over 90% | over 90% | not to E. coli | rapid and selective binding to S. aureus |

Source: paper PMC11224109, “Synthesis and preclinical evaluation of novel ^18F-vancomycin-based tracers for the detection of bacterial infections using positron emission tomography” (European Journal of Nuclear Medicine and Molecular Imaging, 2024)
